Experimental data published in patent US20150099721A1, “TREATING CANCER WITH HSP90 INHIBITORY COMPOUNDS” (Synta Pharmaceuticals Corp., priority 2012, published 2015).
“Also recorded” adds a separate entry of the source.

Columns and labels:
[1] = tested on: SLC34A2-ROS expressing HCC78 NSCLC cells; assay: Cell viability (Cell Titer-Glo) in HCC78 cells; assay type: cell-based, human; settings: for IC50: Homo sapiens, 72 hr exposure (FIG. 1A), read-out: IC50, loss of HCC78 cell viability; for cells killed by single agent: drug on its own (FIG. 1C)
Description: (§1) Human HCC78 NSCLC cells and human TPC-1 thyroid cancer cells were obtained from Dr. Steve Morris (St. Jude's) and grown in RPMI in the presence of fetal bovine serum (10%), 2 mM L-glutamine and antibiotics (100 IU/ml penicillin and 100 μg/ml streptomycin) purchased from Sigma Aldrich. Cells were maintained at 37° C., 5% CO2 atmosphere.
(§2) Cell viability was measured using the Cell Titer-Glo assay (Promega). In brief, cells were plated in 96-well plates in triplicate at optimal seeding density (determined empirically for each cell line) and incubated at 37° C., 5% CO2 atmosphere for 24 hr prior to the addition of drug or vehicle (0.3% DMSO) to the culture medium. At the end of the assay, Cell Titer-Glow was added to the wells per manufactures recommendation, shaken for two minutes and incubated for 10 minutes at room temperature. Luminescence (0.1 sec) was measured with a Victor II microplate reader (Perkin Elmer) and the resulting data were used to calculate cell viability, normalized to vehicle control.
(§3) Chromosomal rearrangements involving ROS kinase have been reported in several tumor types, including non-small cell lung cancer (NSCLC) and glioblastoma. […] See, e.g., Ting-Lei Gu et al, PLoS One. 2011; 6(1):e15640. To determine if inhibition of Hsp90 affects the activity of ROS fusion kinases and viability of cells driven by such fusions, SLC34A2-ROS expressing HCC78 NSCLC cells were treated with ganetespib and both viability and protein activity was assessed. […] See, e.g., Chenguang Li et al, PLoS One. 2011; 6(11):e28204. […] To determine if ganetespib affects the constitutive activity of ROS, HCC78 cells were treated with ganetespib for 24 hr and the phosphorylation of ROS was assayed by Western blot. […] In addition to SLC34A2-ROS, other ROS chimeras have been identified including CD74-ROS and FIG-ROS. Show in FIG. 1D, Ba/F3 cells stably expressing either CD74-ROS or FIG-ROS were treated with ganetespib for 24 hr and activity of ROS was determined by Western blot.

[2] = tested on: cancer cells driven by oncogenic ROS1 fusion; assay: Viability of cancer cells driven by oncogenic ROS1 fusion (FIGS. 3-4); assay type: cell-based; settings: FIG. 3, FIG. 4
Description: as §2

[3] = tested on: ROS (SLC34A2-ROS) in HCC78 cells; assay: Western blot of ROS phosphorylation in HCC78 cells; assay type: cell-based, human; settings: 24 hr, 250 nM (FIG. 1B)
Text: (§4) Cells, treated with compound for 24 hr, were lysed in RIPA buffer (CST, Danvers, Mass., USA) on ice and clarified by centrifugation. Equal amounts of proteins were resolved by SDS-PAGE and immunoblotted with indicated antibodies (CST). The antigen-antibody complex was visualized and quantitated using an Odyssey system (LI-COR, Lincoln, Nebr., USA).
as §3

CD74-ROS = assay: Western blot of ROS phosphorylation in Ba/F3 cells expressing CD74-ROS; assay type: cell-based; settings: 24 hr, 100 nM (FIG. 1D)
Text: as §4, §3

FIG-ROS = assay: Western blot of ROS phosphorylation in Ba/F3 cells expressing FIG-ROS; assay type: cell-based; settings: 24 hr, 100 nM (FIG. 1D)
Text: as §4, §3

CCDC6-RET = assay: Western blot in TPC-1 cells (CCDC6-RET, ERK, PARP); assay type: cell-based, human; settings: 24 hr (FIG. 2)
Description: as §1, §4
(§5) Recently, fusions of the RET kinase have also been detected in NSCLC. See, e.g., Fei Li et al, Cell Research (2012), 1-4. One such fusion, CCDC6-RET, was determined to be present in ˜1% of lung adenocarcinomas from never smokers. To investigate whether ganetespib modulates the activity and stability of RET fusions, CCDC6-RET expressing TPC-1 thyroid cancer cells were used as a model.

[4] = tested on: CCDC6-RET expressing TPC-1 thyroid cancer cells; assay: Cell viability in TPC-1 cells; assay type: cell-based, human; settings: 72 hr (FIG. 2A, FIG. 7)
Description: as §1, §2, §5

ROS1 fusion protein = assay: Degradation of ROS1 fusion protein (FIG. 5); assay type: cell-based
Text: as §4

| IC50 [1] [nM] | SMILES | cells killed by single agent [1] | viability of cancer cells driven by oncogenic ROS1 fusion [2] | phosphorylation of ROS [3] | activity (phosphorylation) of CD74-ROS (CD74-ROS) | activity (phosphorylation) of FIG-ROS (FIG-ROS) | ERK activity (CCDC6-RET) | PARP cleavage (CCDC6-RET) | degradation of total and phosphorylated CCDC6-RET (CCDC6-RET) | cell death / viability of TPC-1 cells [4] | degradation of ROS1 fusion protein (ROS1 fusion protein) |
| --- | --- | --- | --- | --- | --- | --- | --- | --- | --- | --- | --- |
| 1040 | C[C@@H](Oc1cc(-c2cnn(C3CCNCC3)c2)cnc1N)c1c(Cl)ccc(F)c1Cl [crizotinib, reference compound] | approximately 50% | inhibited viability |  |  |  |  |  |  |  |  |
| 17 | CC(C)c1cc(-c2nnc(O)n2-c2ccc3c(ccn3C)c2)c(O)cc1O [ganetespib, 3-(2,4-DIHYDROXY-5- ISOPROPYL-PHENYL)-4-(1- METHYL-INDOL-5-YL)-5- HYDROXY-[1,2,4] TRIAZOLE (GANETESPIB)] | approximately 50% | inhibited viability; also recorded: significantly inhibited the viability of more cancer cells | significant dephosphorylation of ROS | effectively reduces the activity | effectively reduces the activity | deactivation of ERK | cleavage of the pro-apoptotic protein PARP | potently induced the degradation | resulting in cell death; also recorded: significantly inhibited the viability | leads to degradation of ROS1 fusion protein |
